In paper PMC4656030 (Journal of pharmacokinetics and pharmacodynamics, 2015):
Values belong to the molecule of their own block, whether it stands above or below them.

Experiments:
[1] = molecular target: T1, porcine kidney diamine oxidase (Sus scrofa, UniProt Q9TRC7); assay: Diamine oxidase spectrophotometric assay with putrescine as substrate; type: biochemical
T1 sequence (Q9TRC7 25-755): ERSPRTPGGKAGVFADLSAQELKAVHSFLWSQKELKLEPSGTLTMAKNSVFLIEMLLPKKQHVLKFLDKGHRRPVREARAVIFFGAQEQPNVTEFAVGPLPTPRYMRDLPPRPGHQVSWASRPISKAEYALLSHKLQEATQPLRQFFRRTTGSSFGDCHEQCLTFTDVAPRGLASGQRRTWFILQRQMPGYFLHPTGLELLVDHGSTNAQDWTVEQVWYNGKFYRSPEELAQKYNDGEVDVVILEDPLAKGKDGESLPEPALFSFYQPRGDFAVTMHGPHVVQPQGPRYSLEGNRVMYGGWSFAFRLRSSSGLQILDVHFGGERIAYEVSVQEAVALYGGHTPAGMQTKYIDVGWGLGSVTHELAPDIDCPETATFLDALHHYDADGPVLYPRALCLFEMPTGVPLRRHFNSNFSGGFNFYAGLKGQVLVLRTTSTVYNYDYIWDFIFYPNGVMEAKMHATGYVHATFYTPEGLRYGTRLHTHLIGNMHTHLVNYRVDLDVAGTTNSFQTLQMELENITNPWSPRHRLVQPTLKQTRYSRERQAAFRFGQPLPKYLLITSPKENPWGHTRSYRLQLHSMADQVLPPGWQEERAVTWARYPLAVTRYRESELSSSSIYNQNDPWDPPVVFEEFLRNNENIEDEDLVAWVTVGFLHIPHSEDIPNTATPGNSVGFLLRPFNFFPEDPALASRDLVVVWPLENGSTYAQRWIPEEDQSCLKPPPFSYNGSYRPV

porcine diamine oxidase = conditions: read-out: reported KM of putrescine; cited from earlier work
[2] = after a therapeutic dose; cited from earlier work
diamine oxidase = conditions: read-out: Ki for diamine oxidase; cited from earlier work
[3] = substrate: NCCCCN; assay: purified protein, by the assay type; conditions: other: porcine DAO; pH 7.0; 37.0 °C

Molecule: N=C(N)NN [aminoguanidine]
- % inhibition of porcine DAO ([1]; inhibitor 100 μM, putrescine 100 μM as substrate): greater than 80%

Molecule: NCCCCN [putrescine]
- Km (porcine diamine oxidase): 350 µM

- Ki [1]: 8.6 ± 3.1 mM
- type of DAO inhibition ([1]; porcine DAO): mixed-type inhibition
Molecule: CN(C)C(=N)N=C(N)N [metformin, Metformin]
- predicted concentration in the intestinal lumen [2]: 10 to 20 mM

Molecule: [H]/N=C(/N)N/C(=N/[H])NCCc1ccccc1 [phenformin]
- Ki (diamine oxidase): 4 mM

B1: porcine kidney diamine oxidase (Sus scrofa) (protein)
chain: ERSPRTPGGKAGVFADLSAQELKAVHSFLWSQKELKLEPSGTLTMAKNSVFLIEMLLPKKQHVLKFLDKGHRRPVREARAVIFFGAQEQPNVTEFAVGPLPTPRYMRDLPPRPGHQVSWASRPISKAEYALLSHKLQEATQPLRQFFRRTTGSSFGDCHEQCLTFTDVAPRGLASGQRRTWFILQRQMPGYFLHPTGLELLVDHGSTNAQDWTVEQVWYNGKFYRSPEELAQKYNDGEVDVVILEDPLAKGKDGESLPEPALFSFYQPRGDFAVTMHGPHVVQPQGPRYSLEGNRVMYGGWSFAFRLRSSSGLQILDVHFGGERIAYEVSVQEAVALYGGHTPAGMQTKYIDVGWGLGSVTHELAPDIDCPETATFLDALHHYDADGPVLYPRALCLFEMPTGVPLRRHFNSNFSGGFNFYAGLKGQVLVLRTTSTVYNYDYIWDFIFYPNGVMEAKMHATGYVHATFYTPEGLRYGTRLHTHLIGNMHTHLVNYRVDLDVAGTTNSFQTLQMELENITNPWSPRHRLVQPTLKQTRYSRERQAAFRFGQPLPKYLLITSPKENPWGHTRSYRLQLHSMADQVLPPGWQEERAVTWARYPLAVTRYRESELSSSSIYNQNDPWDPPVVFEEFLRNNENIEDEDLVAWVTVGFLHIPHSEDIPNTATPGNSVGFLLRPFNFFPEDPALASRDLVVVWPLENGSTYAQRWIPEEDQSCLKPPPFSYNGSYRPV
- Km [3]: 0.33 ± 0.16 mM
